Here are results for two compounds from ChEMBL document CHEMBL2074493, “Reversal of multidrug resistance-associated protein-mediated drug resistance by the pyridine analog PAK-104P” (Mol Pharmacol, 1997).

The target of data set [1] is T1, Multidrug resistance-associated protein 1 (Homo sapiens, UniProt P33527). Description: TP_TRANSPORTER: increase in Vincristine intracellular accumulation (Vincristine: 1 uM, PAK-104P: 10 uM) in KB-3-1 and C-A120 cell. Format: functional, cell-based. As to conditions: kb-3-1;c-a120, 10 µM.
T1 sequence (P33527 whole entry): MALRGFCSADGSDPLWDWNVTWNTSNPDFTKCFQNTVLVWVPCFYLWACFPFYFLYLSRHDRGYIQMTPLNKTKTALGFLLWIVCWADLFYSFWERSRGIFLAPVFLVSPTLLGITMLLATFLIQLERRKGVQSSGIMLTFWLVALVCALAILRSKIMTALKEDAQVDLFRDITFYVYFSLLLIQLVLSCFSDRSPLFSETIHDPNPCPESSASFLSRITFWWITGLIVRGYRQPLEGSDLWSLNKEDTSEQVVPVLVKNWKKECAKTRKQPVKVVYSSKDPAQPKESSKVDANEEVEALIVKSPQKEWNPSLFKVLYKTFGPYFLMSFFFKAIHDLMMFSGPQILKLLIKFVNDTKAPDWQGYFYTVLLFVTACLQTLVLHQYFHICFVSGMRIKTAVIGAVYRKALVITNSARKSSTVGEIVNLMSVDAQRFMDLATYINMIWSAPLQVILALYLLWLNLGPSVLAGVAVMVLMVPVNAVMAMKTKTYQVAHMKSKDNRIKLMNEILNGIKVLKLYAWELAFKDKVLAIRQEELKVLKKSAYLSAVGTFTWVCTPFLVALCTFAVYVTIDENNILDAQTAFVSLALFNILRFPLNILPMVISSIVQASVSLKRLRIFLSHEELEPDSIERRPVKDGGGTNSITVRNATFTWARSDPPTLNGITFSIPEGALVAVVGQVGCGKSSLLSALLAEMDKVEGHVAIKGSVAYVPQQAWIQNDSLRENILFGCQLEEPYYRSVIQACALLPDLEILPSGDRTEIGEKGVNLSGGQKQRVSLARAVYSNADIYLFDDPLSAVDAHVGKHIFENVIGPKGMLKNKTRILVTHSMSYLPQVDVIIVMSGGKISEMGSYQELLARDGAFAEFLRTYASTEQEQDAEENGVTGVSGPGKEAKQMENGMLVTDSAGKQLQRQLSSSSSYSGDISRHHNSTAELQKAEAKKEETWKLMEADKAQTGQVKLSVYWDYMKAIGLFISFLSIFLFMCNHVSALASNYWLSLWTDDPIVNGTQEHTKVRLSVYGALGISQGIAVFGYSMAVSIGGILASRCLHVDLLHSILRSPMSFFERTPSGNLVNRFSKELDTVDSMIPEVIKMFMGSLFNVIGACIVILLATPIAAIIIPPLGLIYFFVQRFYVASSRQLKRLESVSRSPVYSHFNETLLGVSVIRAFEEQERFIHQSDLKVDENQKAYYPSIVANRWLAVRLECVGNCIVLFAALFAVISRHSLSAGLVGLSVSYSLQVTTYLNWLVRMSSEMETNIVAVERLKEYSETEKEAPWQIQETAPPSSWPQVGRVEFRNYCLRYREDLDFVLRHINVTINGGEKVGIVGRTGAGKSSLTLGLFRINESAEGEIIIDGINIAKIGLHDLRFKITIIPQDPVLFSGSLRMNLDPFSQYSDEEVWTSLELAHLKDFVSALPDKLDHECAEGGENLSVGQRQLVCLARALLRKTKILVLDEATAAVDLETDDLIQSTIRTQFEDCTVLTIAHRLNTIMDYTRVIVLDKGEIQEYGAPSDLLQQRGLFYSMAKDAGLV
The target of data set [2] is T1, Multidrug resistance-associated protein 1. The data set can be described thus: TP_TRANSPORTER: intracellular accumulation in KB-3-1 and C-A120 cells. Type of data set: functional, cell-based, KB-3-1; C-A120.

`Cc1nc(C)c(P2(=O)O[C@H](C)C[C@@H](C)O2)c(-c2cccc([N+](=O)[O-])c2)c1C(=O)OCCN1CCN(C(c2ccccc2)c2ccccc2)CC1` (some centres not stated): the Activity result in data set [1] is “inhibitor [1.3 to 1.7-fold]”.

With `CC[C@]1(O)C[C@H]2CN(CCc3c([nH]c4ccccc34)[C@@](C(=O)OC)(c3cc4c(cc3OC)N(C=O)[C@H]3[C@@](O)(C(=O)OC)[C@H](OC(C)=O)[C@]5(CC)C=CCN6CC[C@]43[C@@H]65)C2)C1` [VINCRISTINE], the Activity entry in data set [2] was “substrate [+]”.
